Molecules are shown by their SMILES. Residues, ends and D or L forms follow the SMILES beside them.

The results in this text go back to US10799622B2, “Reducing post-operative adhesion formation with intraperitoneal glutamine” (AdeTherapeutics Inc., priority 2005, dated 2020).

For series [1], the system named is post-operative adhesion formation. Description: Modified cecal puncture abdominal surgery, histological assessment of post-operative adhesions (Example 1). In kind it is in vivo, male Wistar rats. The note with it: for complications due to intraperitoneal use: 0.3-1.5 g/kg intraperitoneally; for reducing and/or preventing post-operative adhesions (including secondary adhesions): administered intra-peritoneally; for acute inflammatory response (macrophages and macrophage chemotactic proteins): days 3-7, vs saline and non-treatment surgical groups. The protocol: 70 plus male Wistar rats (over 350 g each) were assessed histologically on post-operative days 1,3,5,7,10, 30, and at about 6 weeks. The rats were randomly distributed based on the mode of treatment, type of sutures and presence or absence of hemorrhage during surgery. Initially, there were three surgery groups (alanyl-glutamine treatment, saline, no treatment) plus a control (no surgery).
The rats were anaesthetized with halothane/Ketamine. Open surgery involving a midline sub-umbilical incision and a modified cecal puncture with pulstring to prevent soilage after abdominal closure was done. The procedure involved some fecal extrusion, mimicking clinical scenarios of iatrogenic/traumatic perforations of the bowel. Alanyl-glutamine [Degussa; Coubevoie, France] […] (1.5 g/kg) was instilled into the peritoneal cavity from a syringe. The cecum, abdomen, and the skin were closed in layers using the same suture. Various absorbable (3/0 Vicryl™, 3/0 Monocryl™, 3/0 PDS™, 2/0 Maxon™) and non-absorbable sutures (3/0 Prolene™, 3/0 Ethibond™, 4/0 & 5/0 Surgilene™, 3/0 Novafil™) were used. The wound was infiltrated with local anesthetic. The animals were given sufficient chow to eat (20 g/day≈2 mmole/kg/day). The gastrointestinal tract and omentum were harvested from the stomach to the sigmoid colon and fixed in formaldehyde solution for evaluation.
The severity of adhesions was assessed histologically using standard Haematoxylin & Eosin and Masson trichrome stained slides. The latter helped delineate the degree of fibrosis and collagen deposition.
Semi-quantitative analysis was done by scoring the average number of milky spots per high-power-field (HPF). Quantitative statistical analysis was done using the T-test between the experimental groups. Milky spots are a marker for inflammation and adhesion formation.

A further series deals with secondary adhesions. Description: Secondary adhesions after adhesiolysis in rats with mesh implants, Zuhlke score (Example 3). In kind it is in vivo, Sprague-Dawley rats. The note with it: three weeks after adhesiolysis and installation, six months after initial surgery. Here is the method: Adhesions tend to recur once in place. We examined the effect of alanyl-glutamine treatment on such secondary adhesions. The modified caecal perforation with pulstring closure procedure described in Example 1 was performed on 9 Sprague-Dawley rats. These were divided into 5 groups, each group receiving a different form of mesh (INTERCEED™; PROCEED™; BARD™ composite; prolene; and a mesh which was allowed to be “infected” by repeated re-opening of the wound). The surgical procedure with mesh implacement was performed without application of a glutamine source. Six months after initial surgery, a laparotomy was performed on each rat then adhesiolysis followed by installation of alanyl-glutamine.

The subject of series [2] is post-operative adhesion formation. Kind of series: Surgery as in Example 1 with Marlex mesh inserted, Zuhlke adhesion score (Example 2). In kind it is in vivo, rats. The note with it: day 90. The protocol:
Previous studies show a high incidence of adhesion formation when surgical mesh is employed as a reinforcing material [6a, 6b]. We repeated trials as described in Example 1, inserting Marlex™ mesh during the procedure on the surgical groups.
Severity of adhesions was assessed at day 90 using the adhesion score of Zuhlke, et al.. This scoring procedure has been described in the literature for assessment of other potential treatments for adhesions. […] This differs from previous measurements of adhesions using polypropylene mesh which reported up to about 90% adhesion formation [6a].

Series [3] shares this test system. Description: Modified cecal puncture abdominal surgery, histological assessment of post-operative adhesions (Example 1). In kind it is in vivo, male Wistar rats. The note with it: 0.3 g/kg intraperitoneal.

For the molecule `NC(=O)CC[C@H](N)C(=O)O` [L-glutamine], in series [1], the “complications due to intraperitoneal use” value was “did not observe complications”; the “acute inflammatory response (macrophages and macrophage chemotactic proteins)” value was “reduction, but to a lesser extent”. Also, the “reducing and/or preventing post-operative adhesions (including secondary adhesions)” value in series [1] (summary statement) is reported as “effective”.

For `C[C@H](N)C(=O)N[C@@H](CCC(N)=O)C(=O)O` [alanyl-glutamine] (H-Ala-Gln-OH), the “recurrence of adhesions (secondary adhesions), scored according to Zuhlke, et al.” value in the series on secondary adhesions is on record as “no secondary adhesions were seen”. Besides, the “adhesion score of Zuhlke, et al.” value in series [2] is on record as 0-1. In addition, the effectiveness of dosage entry in series [3] is “effective”. Besides, in series [1], the “complications due to intraperitoneal use” value is given as “did not observe complications”; the “acute inflammatory response (macrophages and macrophage chemotactic proteins)” value is listed as “markedly reduced”. For the same molecule, the effectiveness of dosage entry in series [1] (1.5 g/kg intraperitoneal) is reported as “effective”. Further, the “histological appearance of the peritoneum (adhesion)” value in series [1] (10th post-operative day, intraperitoneal, vs untreated and saline treated surgical groups) was “very minimal adhesion”. Further, in series [1] (summary statement), the “reducing and/or preventing post-operative adhesions (including secondary adhesions)” value is on record as “effective” and the “effect in adhesion prevention compared with L-glutamine” value is given as “more pronounced”. Also, the “milky spots per 5 high power field (5HPF) in the peritoneum” value in series [1] (controls 1 per 5HPF, untreated surgical group 6-7) was “the same as the controls”. Besides, the “adhesions in all the suture groups (braided and monofilament, absorbable and non-absorbable)” value in series [1] (intraperitoneal) is “prevented adhesions”.
